Assay results: patent US20080009418A1, “Selective Inhibitors” (Alchemia LTD., priority 2004, published 2008)

Experiments:
Settings in all cases: compound at 10 μM
[1] = molecular target: T1, Human δ-opioid (DOP) (Homo sapiens, UniProt P41143); assay: Radioligand binding, human δ-opioid (DOP) membranes, FlashPlate, [3H]-Bremazocine
T1 construct: purchased Perkin Elmer Biosignal
Summary of the method: (§1)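 Cloned human receptor membranes were coated onto FlashPlate wells and incubated with radioligand and compound (added from a 0.5 mM DMSO daughter plate) for 1 hour at room temperature in the dark. Scintillation counting gave percent inhibition, with DMSO defining total and reference ligand defining non-specific binding.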

[2] = molecular target: T2, Human κ-Opioid (KOP) (Homo sapiens, UniProt P41145); assay: Radioligand binding, human κ-opioid (KOP) membranes, filtration, [3H]-Diprenorphine
T2 construct: purchased Perkin Elmer Biosignal
Summary of the method: (§2)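 Percent inhibition of radioligand binding measured on recombinant human membranes: NK1 with [125I]-Substance P, KOP with [3H]-Diprenorphine. Incubation 1 h at room temperature, then harvest onto 0.3% PEI-soaked filters, cold Tris-HCl pH 7.4 washes and scintillation counting; non-specific binding from reference ligand wells.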

[3] = molecular target: T3, Human Melanocortin (MC3) (Homo sapiens, UniProt P41968); assay: Radioligand binding, human melanocortin MC3 membranes, FlashPlate, [125I]-NDP-αMSH
T3 construct: purchased Perkin Elmer Biosignal
Summary of the method: as §1

[4] = molecular target: T4, Human Melanocortin (MC4) (Homo sapiens, UniProt P32245); assay: Radioligand binding, human melanocortin MC4 membranes, FlashPlate, [125I]-NDP-αMSH
T4 construct: purchased Perkin Elmer Biosignal
Summary of the method: as §1

[5] = molecular target: T5, Human melanocortin (MC5) (Homo sapiens, UniProt P33032); assay: Radioligand binding, human melanocortin MC5 membranes, FlashPlate, [125I]-NDP-αMSH
T5 construct: purchased Perkin Elmer Biosignal
Summary of the method: as §1

[6] = molecular target: T6, Human melanin-concentrating hormone (MCH1) (Homo sapiens, UniProt Q99705); assay: Radioligand binding, human melanin-concentrating hormone MCH1 membranes, FlashPlate, [125I]-S36057
T6 construct: purchased Perkin Elmer Biosignal
Summary of the method: as §1

[7] = molecular target: T7, Human μ-opioid (MOP) (Homo sapiens, UniProt P35372); assay: Radioligand binding, human μ-opioid (MOP) membranes, FlashPlate, [3H]-Naloxone
T7 construct: purchased Perkin Elmer Biosignal
Summary of the method: as §1

[8] = molecular target: T8, Human neurokinin (NK1) (Homo sapiens, UniProt P25103); assay: Radioligand binding, human neurokinin NK1 membranes, filtration, [125I]-Substance P
T8 construct: purchased Perkin Elmer Biosignal
Summary of the method: as §2

[9] = molecular target: T9, Human neuropeptide Y (NPY-Y1) (Homo sapiens, UniProt P25929); assay: Radioligand binding, human neuropeptide Y NPY-Y1 membranes, FlashPlate, [125I]-PYY
T9 construct: purchased Perkin Elmer Biosignal
T9 sequence (P25929 1-384): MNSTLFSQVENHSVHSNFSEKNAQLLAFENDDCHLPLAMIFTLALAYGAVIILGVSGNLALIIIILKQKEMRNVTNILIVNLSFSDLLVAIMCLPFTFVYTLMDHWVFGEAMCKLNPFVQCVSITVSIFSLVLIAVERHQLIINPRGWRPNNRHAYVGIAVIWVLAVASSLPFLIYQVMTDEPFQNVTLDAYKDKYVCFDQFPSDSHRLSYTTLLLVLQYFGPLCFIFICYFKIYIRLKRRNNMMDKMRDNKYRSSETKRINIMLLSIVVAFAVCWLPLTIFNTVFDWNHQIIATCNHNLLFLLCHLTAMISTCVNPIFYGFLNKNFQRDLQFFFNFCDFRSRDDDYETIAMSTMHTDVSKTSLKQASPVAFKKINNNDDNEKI
Summary of the method: as §1

[10] = molecular target: T10, Human opioid (ORL1) (Homo sapiens, UniProt P41146); assay: Radioligand binding, human opioid ORL1 membranes, FlashPlate, [125I]-Nociceptin
T10 construct: purchased Perkin Elmer Biosignal
Summary of the method: as §1

[11] = molecular target: T11, Mouse urotensin (mUR2) (Mus musculus, UniProt Q8VIH9); assay: Radioligand binding, mouse urotensin mUR2 membranes, FlashPlate, [125I]-Urotensin II
T11 construct: purchased Perkin Elmer Biosignal
T11 sequence (Q8VIH9 1-385): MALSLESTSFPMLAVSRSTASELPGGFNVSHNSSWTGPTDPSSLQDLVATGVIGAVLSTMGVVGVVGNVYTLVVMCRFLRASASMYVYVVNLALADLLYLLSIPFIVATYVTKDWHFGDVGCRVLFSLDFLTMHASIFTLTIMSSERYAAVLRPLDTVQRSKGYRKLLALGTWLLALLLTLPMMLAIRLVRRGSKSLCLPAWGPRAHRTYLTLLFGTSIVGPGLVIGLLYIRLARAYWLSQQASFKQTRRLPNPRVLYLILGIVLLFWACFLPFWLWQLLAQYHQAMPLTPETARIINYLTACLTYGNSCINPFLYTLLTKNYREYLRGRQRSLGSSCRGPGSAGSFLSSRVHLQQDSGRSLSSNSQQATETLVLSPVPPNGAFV
Summary of the method: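 Cloned mouse urotensin (mUR2) receptor membranes from Perkin Elmer Biosignal were immobilized in FlashPlate microplates using a proprietary coating. Each well got 19.5 μl buffer, then 0.5 μl of DMSO, reference ligand, or compound. Adding 5 μl of [125I]-Urotensin II, diluted to 5× final concentration in binding buffer, started binding. Plates were sealed with TopSeal-A and incubated 1 hour at room temperature in the dark. Wells were counted for 30 seconds each on a TopCount after a 60-second delay, and percentage inhibition was calculated.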

T7 sequence (P35372 whole entry): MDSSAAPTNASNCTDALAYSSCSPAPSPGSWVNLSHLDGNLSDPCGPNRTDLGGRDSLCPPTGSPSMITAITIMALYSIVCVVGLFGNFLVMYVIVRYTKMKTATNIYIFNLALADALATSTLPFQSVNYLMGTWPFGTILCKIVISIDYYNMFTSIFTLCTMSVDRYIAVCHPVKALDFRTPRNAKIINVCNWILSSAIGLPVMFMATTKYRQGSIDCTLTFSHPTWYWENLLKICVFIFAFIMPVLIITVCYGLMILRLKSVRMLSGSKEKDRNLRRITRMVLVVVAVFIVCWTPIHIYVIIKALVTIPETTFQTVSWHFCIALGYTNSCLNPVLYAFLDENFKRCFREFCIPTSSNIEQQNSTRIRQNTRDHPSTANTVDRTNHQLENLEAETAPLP
T8 sequence (P25103 whole entry): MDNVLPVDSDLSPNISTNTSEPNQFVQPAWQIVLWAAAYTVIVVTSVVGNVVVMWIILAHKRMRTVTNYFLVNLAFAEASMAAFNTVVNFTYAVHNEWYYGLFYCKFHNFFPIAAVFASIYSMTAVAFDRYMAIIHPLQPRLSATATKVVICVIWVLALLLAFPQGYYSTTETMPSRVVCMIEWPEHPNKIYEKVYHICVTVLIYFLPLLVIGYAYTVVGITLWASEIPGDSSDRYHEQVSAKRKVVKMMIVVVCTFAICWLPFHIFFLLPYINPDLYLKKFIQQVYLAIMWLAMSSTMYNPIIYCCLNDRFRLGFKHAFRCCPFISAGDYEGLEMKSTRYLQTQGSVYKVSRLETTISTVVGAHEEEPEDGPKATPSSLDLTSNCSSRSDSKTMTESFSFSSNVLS
T1 sequence (P41143 whole entry): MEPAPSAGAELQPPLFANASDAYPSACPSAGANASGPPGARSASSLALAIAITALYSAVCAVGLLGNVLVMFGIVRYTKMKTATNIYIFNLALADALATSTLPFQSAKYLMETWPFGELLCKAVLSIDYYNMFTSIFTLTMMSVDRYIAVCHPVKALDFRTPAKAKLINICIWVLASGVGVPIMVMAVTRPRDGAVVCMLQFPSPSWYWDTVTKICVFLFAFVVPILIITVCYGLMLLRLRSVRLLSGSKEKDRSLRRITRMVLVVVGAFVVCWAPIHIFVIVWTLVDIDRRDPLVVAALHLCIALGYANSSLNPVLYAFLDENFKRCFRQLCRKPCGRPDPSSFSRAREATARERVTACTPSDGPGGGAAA
T10 sequence (P41146 whole entry): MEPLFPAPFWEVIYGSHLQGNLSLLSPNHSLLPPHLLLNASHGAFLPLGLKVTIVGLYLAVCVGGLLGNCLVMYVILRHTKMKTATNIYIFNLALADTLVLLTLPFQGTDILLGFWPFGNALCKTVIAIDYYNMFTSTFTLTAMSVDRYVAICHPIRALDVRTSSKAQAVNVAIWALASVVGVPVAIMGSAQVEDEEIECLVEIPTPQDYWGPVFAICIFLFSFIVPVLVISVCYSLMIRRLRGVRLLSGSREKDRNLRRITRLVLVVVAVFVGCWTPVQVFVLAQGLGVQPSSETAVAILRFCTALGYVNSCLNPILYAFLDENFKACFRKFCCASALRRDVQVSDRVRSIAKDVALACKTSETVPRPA
T4 sequence (P32245 whole entry): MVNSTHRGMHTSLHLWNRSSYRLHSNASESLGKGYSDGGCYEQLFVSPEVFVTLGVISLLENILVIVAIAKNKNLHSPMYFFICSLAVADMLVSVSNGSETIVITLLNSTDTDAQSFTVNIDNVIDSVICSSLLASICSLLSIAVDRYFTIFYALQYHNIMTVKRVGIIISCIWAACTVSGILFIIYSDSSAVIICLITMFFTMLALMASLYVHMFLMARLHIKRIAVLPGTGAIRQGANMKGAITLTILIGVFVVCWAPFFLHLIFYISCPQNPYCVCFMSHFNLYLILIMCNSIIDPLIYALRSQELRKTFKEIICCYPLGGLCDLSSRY
T6 sequence (Q99705 whole entry): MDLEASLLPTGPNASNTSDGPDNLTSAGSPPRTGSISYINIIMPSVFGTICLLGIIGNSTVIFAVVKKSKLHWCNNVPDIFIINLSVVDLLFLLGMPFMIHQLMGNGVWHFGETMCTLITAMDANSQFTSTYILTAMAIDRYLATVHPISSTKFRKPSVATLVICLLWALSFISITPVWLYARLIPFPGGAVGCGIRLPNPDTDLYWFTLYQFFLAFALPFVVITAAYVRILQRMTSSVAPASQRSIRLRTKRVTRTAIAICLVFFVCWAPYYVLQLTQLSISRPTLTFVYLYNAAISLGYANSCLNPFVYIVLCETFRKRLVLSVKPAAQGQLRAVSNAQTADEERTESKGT
T2 sequence (P41145 whole entry): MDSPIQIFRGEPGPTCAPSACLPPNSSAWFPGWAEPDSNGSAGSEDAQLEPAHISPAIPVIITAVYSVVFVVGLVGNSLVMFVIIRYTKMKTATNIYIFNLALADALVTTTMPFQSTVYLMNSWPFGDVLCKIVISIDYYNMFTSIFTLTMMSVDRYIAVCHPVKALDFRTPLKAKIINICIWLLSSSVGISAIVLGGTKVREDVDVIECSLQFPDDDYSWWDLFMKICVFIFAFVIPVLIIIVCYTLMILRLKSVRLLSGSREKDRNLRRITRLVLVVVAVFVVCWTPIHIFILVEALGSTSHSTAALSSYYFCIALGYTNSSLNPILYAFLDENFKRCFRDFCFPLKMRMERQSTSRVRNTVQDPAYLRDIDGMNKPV
T5 sequence (P33032 whole entry): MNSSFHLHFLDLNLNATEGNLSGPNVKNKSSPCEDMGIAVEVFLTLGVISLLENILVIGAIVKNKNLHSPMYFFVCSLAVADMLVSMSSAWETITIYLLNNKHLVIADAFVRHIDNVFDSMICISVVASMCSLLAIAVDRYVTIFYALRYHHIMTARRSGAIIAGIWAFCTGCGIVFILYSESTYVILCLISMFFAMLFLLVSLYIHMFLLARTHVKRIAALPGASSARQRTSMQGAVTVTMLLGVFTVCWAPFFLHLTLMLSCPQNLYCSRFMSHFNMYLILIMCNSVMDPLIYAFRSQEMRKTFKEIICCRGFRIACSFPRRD
T3 sequence (P41968 whole entry): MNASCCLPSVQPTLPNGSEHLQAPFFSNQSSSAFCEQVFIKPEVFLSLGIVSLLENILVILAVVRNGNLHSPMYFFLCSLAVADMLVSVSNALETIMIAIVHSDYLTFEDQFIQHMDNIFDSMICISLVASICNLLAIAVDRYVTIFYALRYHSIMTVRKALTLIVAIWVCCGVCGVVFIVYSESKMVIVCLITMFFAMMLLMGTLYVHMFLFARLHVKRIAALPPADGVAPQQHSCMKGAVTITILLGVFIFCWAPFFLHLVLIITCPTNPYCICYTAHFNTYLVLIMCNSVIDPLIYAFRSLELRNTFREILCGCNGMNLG

In the case of `COCC1OC(OCc2ccc3ccccc3c2)C(NC(=O)CCNC(=N)N)C(OCc2ccc(-c3ccccc3)cc2)C1O` (stereo not shown) [compound 244], the “A1: inhibition of radioligand binding” value ([1]; [3H]-Bremazocine, FlashPlate) is reported as “− (“−” indicates less than 50% inhibition at 10 μM)”, the “A2: inhibition of radioligand binding” value ([2]; [3H]-Diprenorphine, filtration) is reported as “− (“−” indicates less than 50% inhibition at 10 μM)” and the “A3: inhibition of radioligand binding” value ([3]; [125I]-NDP-αMSH, FlashPlate) is reported as “+ (“+” indicates greater than 50% inhibition at 10 μM)”. For the same compound, the “A4: inhibition of radioligand binding” value ([4]; [125I]-NDP-αMSH, FlashPlate) was “+ (“+” indicates greater than 50% inhibition at 10 μM)”, the “A5: inhibition of radioligand binding” value ([5]; [125I]-NDP-αMSH, FlashPlate) was “+ (“+” indicates greater than 50% inhibition at 10 μM)” and the “A6: inhibition of radioligand binding” value ([6]; [125I]-S36057, FlashPlate) was “+ (“+” indicates greater than 50% inhibition at 10 μM)”. The “A7: inhibition of radioligand binding” value ([7]; [3H]-Naloxone, FlashPlate) was “− (“−” indicates less than 50% inhibition at 10 μM)”, the “A8: inhibition of radioligand binding” value ([8]; [125I]-Substance P, filtration) was “+ (“+” indicates greater than 50% inhibition at 10 μM)” and the “A9: inhibition of radioligand binding” value ([9]; [125I]-PYY, FlashPlate) was “+ (“+” indicates greater than 50% inhibition at 10 μM)”. For the same compound, the “A10: inhibition of radioligand binding” value ([10]; [125I]-Nociceptin, FlashPlate) was “− (“−” indicates less than 50% inhibition at 10 μM)” and the “A11: inhibition of radioligand binding” value ([11]; [125I]-Urotensin II, FlashPlate) was “− (“−” indicates less than 50% inhibition at 10 μM)”.

With `N=C(N)NCC(=O)N[C@H]1C(OCc2ccc(Cl)cc2)O[C@H](COCc2ccc(Cl)cc2)[C@@H](O)[C@@H]1OCc1ccc(-c2ccccc2)cc1` (stereo partly shown) [compound 521] the “A1: inhibition of radioligand binding, human δ-opioid (DOP)” value ([1]; [3H]-Bremazocine) was “− (“−” indicates less than 50% inhibition at 10 μM)”, the “A2: inhibition of radioligand binding, human κ-opioid (KOP)” value ([2]; [3H]-Diprenorphine) was “− (“−” indicates less than 50% inhibition at 10 μM)” and the “A3: inhibition of radioligand binding, human melanocortin (MC3)” value ([3]; [125I]-NDP-αMSH) was “+ (“+” indicates greater than 50% inhibition at 10 μM)”. For the same compound, the “A4: inhibition of radioligand binding, human melanocortin (MC4)” value ([4]; [125I]-NDP-αMSH) was “+ (“+” indicates greater than 50% inhibition at 10 μM)”, the “A5: inhibition of radioligand binding, human melanocortin (MC5)” value ([5]; [125I]-NDP-αMSH) was “+ (“+” indicates greater than 50% inhibition at 10 μM)” and the “A6: inhibition of radioligand binding, human melanin-concentrating hormone (MCH1)” value ([6]; [125I]-S36057) was “+ (“+” indicates greater than 50% inhibition at 10 μM)”. The “A7: inhibition of radioligand binding, human μ-opioid (MOP)” value ([7]; [3H]-Naloxone) was “− (“−” indicates less than 50% inhibition at 10 μM)”, the “A8: inhibition of radioligand binding, human neurokinin (NK1)” value ([8]; [125I]-Substance P) was “+ (“+” indicates greater than 50% inhibition at 10 μM)” and the “A9: inhibition of radioligand binding, human neuropeptide Y (NPY-Y1)” value ([9]; [125I]-PYY) was “− (“−” indicates less than 50% inhibition at 10 μM)”. For the same compound, the “A10: inhibition of radioligand binding, human opioid (ORL1)” value ([10]; [125I]-Nociceptin, 10 µM) was “+ (“+” indicates greater than 50% inhibition at 10 μM)” and the “A11: inhibition of radioligand binding, mouse urotensin (mUR2)” value ([11]; [125I]-Urotensin II) was “− (“−” indicates less than 50% inhibition at 10 μM)”.

For `COC[C@H]1OC(OCc2ccc(Cl)cc2)[C@H](NC(=O)CCNC(=N)N)[C@@H](OCc2ccccc2)[C@@H]1O` (stereo partly shown) [compound 34], the “A1 radioligand binding inhibition” value ([1]; human δ-opioid (DOP) membranes) was “− (“−” indicates less than 50% inhibition at 10 μM)”, the “A2 radioligand binding inhibition” value ([2]; human κ-opioid (KOP) membranes) was “− (“−” indicates less than 50% inhibition at 10 μM)” and the “A3 radioligand binding inhibition” value ([3]; human melanocortin MC3 membranes) was “− (“−” indicates less than 50% inhibition at 10 μM)”. For the same compound, the “A4 radioligand binding inhibition” value ([4]; human melanocortin MC4 membranes) was “− (“−” indicates less than 50% inhibition at 10 μM)”, the “A5 radioligand binding inhibition” value ([5]; human melanocortin MC5 membranes) was “− (“−” indicates less than 50% inhibition at 10 μM)” and the “A6 radioligand binding inhibition” value ([6]; human MCH1 membranes) was “− (“−” indicates less than 50% inhibition at 10 μM)”. The “A7 radioligand binding inhibition” value ([7]; human μ-opioid (MOP) membranes) was “− (“−” indicates less than 50% inhibition at 10 μM)”, the “A8 radioligand binding inhibition” value ([8]; human neurokinin NK1 membranes) was “+ (“+” indicates greater than 50% inhibition at 10 μM)” and the “A9 radioligand binding inhibition” value ([9]; human NPY-Y1 membranes) was “− (“−” indicates less than 50% inhibition at 10 μM)”. The “A10 radioligand binding inhibition” value ([10]; human ORL1 membranes) was “− (“−” indicates less than 50% inhibition at 10 μM)” and the “A11 radioligand binding inhibition” value ([11]; mouse urotensin mUR2 membranes) was “− (“−” indicates less than 50% inhibition at 10 μM)”.

`COCC1OC(OCc2ccccc2)C(NC(=O)CCCN)C(OCc2ccc(Cl)cc2)C1O` (stereo not shown) [compound 180] was tested, and the “A1 radioligand binding, percentage inhibition” value ([1]; [3H]-Bremazocine) was “− (“−” indicates less than 50% inhibition at 10 μM)”, the “A2 radioligand binding, percentage inhibition” value ([2]; [3H]-Diprenorphine) was “− (“−” indicates less than 50% inhibition at 10 μM)” and the “A3 radioligand binding, percentage inhibition” value ([3]; [125I]-NDP-αMSH) was “− (“−” indicates less than 50% inhibition at 10 μM)”. The “A4 radioligand binding, percentage inhibition” value ([4]; [125I]-NDP-αMSH) was “− (“−” indicates less than 50% inhibition at 10 μM)”, the “A5 radioligand binding, percentage inhibition” value ([5]; [125I]-NDP-αMSH) was “− (“−” indicates less than 50% inhibition at 10 μM)” and the “A6 radioligand binding, percentage inhibition” value ([6]; [125I]-S36057) was “− (“−” indicates less than 50% inhibition at 10 μM)”. For the same compound, the “A7 radioligand binding, percentage inhibition” value ([7]; [3H]-Naloxone) was “− (“−” indicates less than 50% inhibition at 10 μM)”, the “A8 radioligand binding, percentage inhibition” value ([8]; [125I]-Substance P) was “+ (“+” indicates greater than 50% inhibition at 10 μM)” and the “A9 radioligand binding, percentage inhibition” value ([9]; [125I]-PYY) was “− (“−” indicates less than 50% inhibition at 10 μM)”. The “A10 radioligand binding, percentage inhibition” value ([10]; [125I]-Nociceptin) was “− (“−” indicates less than 50% inhibition at 10 μM)” and the “A11 radioligand binding, percentage inhibition” value ([11]; [125I]-Urotensin II) was “− (“−” indicates less than 50% inhibition at 10 μM)”.

In the case of `CO[C@H]1[C@H](O)[C@@H](COCc2ccc3ccccc3c2)OC(OCCc2ccccc2)[C@@H]1NC(=O)CCCNC(=N)N` (stereo partly shown) [compound 116], the “A1 radioligand binding, percentage inhibition” value ([1]; [3H]-Bremazocine) is reported as “− (“−” indicates less than 50% inhibition at 10 μM)”, the “A2 radioligand binding, percentage inhibition” value ([2]; [3H]-Diprenorphine) is reported as “− (“−” indicates less than 50% inhibition at 10 μM)” and the “A3 radioligand binding, percentage inhibition” value ([3]; [125I]-NDP-αMSH) is reported as “− (“−” indicates less than 50% inhibition at 10 μM)”. For the same compound, the “A4 radioligand binding, percentage inhibition” value ([4]; [125I]-NDP-αMSH) was “− (“−” indicates less than 50% inhibition at 10 μM)”, the “A5 radioligand binding, percentage inhibition” value ([5]; [125I]-NDP-αMSH) was “+ (“+” indicates greater than 50% inhibition at 10 μM)” and the “A6 radioligand binding, percentage inhibition” value ([6]; [125I]-S36057) was “− (“−” indicates less than 50% inhibition at 10 μM)”. The “A7 radioligand binding, percentage inhibition” value ([7]; [3H]-Naloxone) was “− (“−” indicates less than 50% inhibition at 10 μM)”, the “A8 radioligand binding, percentage inhibition” value ([8]; [125I]-Substance P) was “+ (“+” indicates greater than 50% inhibition at 10 μM)” and the “A9 radioligand binding, percentage inhibition” value ([9]; [125I]-PYY) was “− (“−” indicates less than 50% inhibition at 10 μM)”. The “A10 radioligand binding, percentage inhibition” value ([10]; [125I]-Nociceptin) was “− (“−” indicates less than 50% inhibition at 10 μM)” and the “A11 radioligand binding, percentage inhibition” value ([11]; [125I]-Urotensin II) was “− (“−” indicates less than 50% inhibition at 10 μM)”.
